In PubChem BioAssay (NCI):
Where “and” joins values, the source holds several entries; their conditions need not be identical. Equal values may be shown once.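 Values below derive from 48-hour exposures of cells grown in 96-well plates, with endpoints linearly interpolated between the two concentrations bracketing the appropriate inhibition level. At the GI50, growth is halved. TGI: concentration producing complete growth inhibition.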

Key:
Assay in all cases: NCI-60 cell line screen, 48 h
[1] = tested on: KM20L2 colon
[2] = tested on: DLD-1 colon
[3] = tested on: DMS 114 small cell lung
[4] = tested on: M19-MEL melanoma
[5] = tested on: SNB-78 CNS
[6] = tested on: LXFL 529 NSCLC
[7] = tested on: PC-3 prostate
[8] = tested on: T-47D breast
[9] = tested on: MCF7 breast
[10] = tested on: XF 498 CNS

Structure (SMILES) | TGI [1] [µM] | TGI [2] [µM] | TGI [3] [µM] | TGI [4] [µM] | TGI [5] [µM] | TGI [6] [µM] | TGI [7] | TGI [8] | TGI [9] | GI50 [7] | GI50 [8] | GI50 [9] | TGI [10] [µM]
O=C(Nc1c(O)[nH]c(=S)[nH]c1=O)c1ccccn1 | > 100 | > 100 | > 100 | > 100 | > 100 | > 100 |  |  |  |  |  |  | 
Cc1nc2ccc(CN(C)c3ccc(C(=O)N[C@@H](CCC(=O)O)C(=O)O)s3)cc2c(=O)[nH]1 |  |  |  |  |  |  | > 100 µM | > 100 µM | > 100 µM |  |  |  | 
OCCOc1ccc(-c2cc(-c3ccccn3)nc(-c3ccccn3)c2)cc1 | > 41.8 | > 100 | 1.93 | 0.593 | > 100 | > 100 | > 100 µM | > 100 µM | > 100 µM |  |  |  | 
O=C(O)c1ccccc1Cc1ccco1 | > 100 | > 100 | > 100 |  | > 100 | > 100 |  |  |  |  |  |  | 
Cn1cc(-c2nonc2-c2c[nH]c3ccccc23)c2ccccc21 |  |  |  |  |  |  | 17.2 µM | 28.5 µM | 15.3 µM | 0.488 µM | 0.464 µM | 0.329 µM | 
C=CC(=O)Nc1ccc(Nc2nccc(-c3ccc(N4CCCC4)c(C#N)c3)n2)cc1 |  |  |  |  |  |  | > 25 µM | > 25 µM | > 25 µM | 20.9 µM | > 25 µM | 9.55 µM | 
O=C(CC1=Nc2nnc(-c3nnc4n3C(=O)C(CC(=O)c3cccnc3)=N4)n2C1=O)c1cccnc1 | > 100 | > 100 | > 100 | > 100 | > 100 | > 100 |  |  |  |  |  |  | 
O=[N+]([O-])c1ccc(Nc2ccccc2-c2ccccc2)c2nonc12 |  |  |  |  |  |  | 66.2 µM | > 100 µM | > 72.4 µM | 13.6 µM | 10.5 µM | 15.3 µM | 
CC/C(Cc1ccccc1)=C(\c1ccc(OCCN2CCCCCC2)cc1)c1ccc(OC(=O)NCc2ccccc2)cc1 |  |  |  |  |  |  | 8.36 µM | 7.91 µM | 5.33 µM | 2.3 µM | 0.916 µM | 0.25 µM | 
O=C1c2ccccc2C2(O)Nc3cc(O)ccc3C12O (stereo not given) | > 100 | > 100 | > 100 |  | > 100 | > 100 |  |  |  |  |  |  | 
N=C(c1ccccc1)N(c1ccccc1)c1ccccc1 | > 100 | > 100 |  | > 100 | > 100 | > 100 |  |  |  |  |  |  | 
CC(=O)C1=C(O)C=C2Oc3c(C(=O)/C=C/c4cc(C(F)(F)F)cc(C(F)(F)F)c4)c(O)c(C)c(O)c3[C@]2(C)C1=O |  |  |  |  |  |  | 2.3 µM | 1.37 µM | 1.7 µM | 0.564 µM | 0.385 µM | 0.427 µM | 
N#Cc1cccc(N2C(=O)c3c(c(-c4ccccc4)c(-c4ccc(Sc5ccc(-c6c(-c7ccccc7)c7c(c(-c8ccccc8)c6-c6ccccc6)C(=O)N(c6cccc(C#N)c6)C7=O)cc5)cc4)c(-c4ccccc4)c3-c3ccccc3)C2=O)c1 | > 100 | > 100 | > 100 |  | > 100 | > 100 |  |  |  |  |  |  | 85
Cc1ccc(C(=O)O/N=C2/CCCC/C2=C\c2ccccc2)cc1 | > 100 | > 100 |  | > 100 | 53.4 | 30.9 |  |  |  |  |  |  | > 100
COc1ccc(C#Cc2ccccc2C#CCCCCO)cc1 |  |  |  |  |  |  | 42.6 µM | 43.8 µM | 59.1 µM | 21.9 µM | 22 µM | 27.2 µM | 
C1=C(c2ccccc2)CN(c2ccccc2)OC1 | > 100 | > 100 |  | > 100 | > 100 | > 100 |  |  |  |  |  |  | > 100
Nc1ncnc2c1ncn2C1OC(COP(=O)(O)CP(=O)(O)O)C(O)C1O (stereo not given) |  |  |  |  |  |  | > 100 µM | > 100 µM | > 100 µM |  |  |  | 
COc1cc(-c2nn3c(/C=C4/C(=O)Nc5ccccc54)c(-c4ccc(C)cc4)nc3s2)cc(OC)c1OC |  |  |  |  |  |  | > 100 µM | > 100 µM |  | 81.1 µM | 3.13 µM |  | 
COc1ccc(S(=O)(=O)NC(C)C(=O)O)cc1 (stereo not given) | > 100 | > 100 |  | > 100 |  | > 100 |  |  |  |  |  |  | 63.4
C=C(Cn1c(=O)c2ccccc2c2ccccc21)c1ccc(C(=O)Nc2ccccc2N)cc1 |  |  |  |  |  |  | > 79.4 µM | > 69.3 µM | > 100 µM | 4.37 µM | 3.86 µM | 69.8 µM | 
COC(=O)[C@@H](NC(=O)NC(=O)NC(=O)CI)C(C)C |  |  |  |  |  |  | 30.7 µM | 34.5 µM | 12.7 µM | 16.3 µM | 6 µM | 3.03 µM | 
COc1cccc2c1C(=O)c1c(O)c3c(c(O)c1C2=O)CC(O)(C(C)=O)CC3OC1CC(N)C(O)C(C)O1 (stereo not given) |  |  |  |  |  |  | 0.545 µg/mL | 0.216 µg/mL | 0.484 µg/mL | 0.0336 µg/mL | 0.0185 µg/mL |  | 
Cc1nc2sccn2c1/C=C1/C(=O)Nc2ccccc21 |  |  |  |  |  |  | > 100 µM | > 100 µM | > 100 µM | 12.3 µM | 0.499 µM | 1.02 µM | 
CC(C)=CCN=C(N)N |  |  |  |  |  |  | > 100 µM | > 100 µM | > 100 µM |  |  |  | 
COc1ccc(-c2[nH]ncc2-c2cc3c(c(OC)c2)OCC(=O)N3)cc1 |  |  |  |  |  |  | > 100 µM | 42.9 µM | 62.4 µM | 0.538 µM | 0.406 µM | 0.315 µM | 
CN1CCN(c2ccc(C(=O)Nc3n[nH]c4ccc(Cc5cc(F)cc(F)c5)cc34)c(NC3CCOCC3)c2)CC1 |  |  |  |  |  |  | > 10 µM and 2.99 µM | > 10 µM | 5.73 µM and 1.93 µM | 2.83 µM and 1.38 µM | 1.99 µM | 0.983 µM and 0.485 µM | 
CC1=CCC[C@@]2(C)C(CC[C@@H]2C(C)/C=C/C(C)C)c2ccc(cc2C(=O)O)C[C@@H](O)CC1 (stereo not given in full) |  | 14 | 40.3 | 29.6 | 34.5 | 23.9 |  |  |  |  |  |  | 
Cc1c2cc[nH]c(=O)c2c(C)c2c1[nH]c1cc(OCCN3CCN(C)CC3)ccc12 |  |  |  |  |  |  | 7.48 µM | 15.2 µM | 6.73 µM | 1.03 µM | 0.782 µM | 0.577 µM | 
O=C(Nc1ccc(Cl)cc1Cl)c1ccc(NC2=C(Cl)C(=O)N(Cc3ccccc3)C2=O)cc1 |  |  |  |  |  |  | 26.2 µM | > 100 µM | 30.6 µM | 13.4 µM | 23.4 µM | 5.91 µM | 
